Data taken from patent US11377441B2, “Covalent inhibitors of KRAS” (Araxes Pharma LLC, priority 2017, dated 2022).

Molecular target: T1, KRAS G12C 1-169, his-tagged protein, GDP-loaded (Homo sapiens, UniProt P01116, G12C)
T1 construct: KRAS G12C 1-169, his-tagged protein, GDP-loaded
Assay: Biochemical assay: covalent modification of KRAS G12C measured by mass spectrometry (RapidFire/TOF or Q-Exactive)
Format: binding
Conditions: covalent binding to (modification of) KRAS G12C after a ten minute incubation period
Method in brief: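 Intact-mass readout (TOF or Q-Exactive, charge-envelope deconvolution) gives percent covalent adduct from modified and unmodified species. Compound at 10, 30 or 100 μM was incubated at room temperature for 10 min to 24 h with 2 μM or 0.5 μM GDP-bound KRAS G12C 1-169 in Hepes/NaCl/MgCl2 buffer, then acid-quenched.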

With C=CC(=O)N1CCN(c2nc(N3CC(N(C)C)C3)nc3c(F)c(-c4c(C)ccc5cnn(C)c45)c(Cl)cc23)C[C@H]1C (atropisomer, axis not shown) [Compound 144, 1-((R)-4-((R)-6-chloro-7-(1,6-dimethyl-1H-indazol-7-yl)-2-(3-(dimethylamino)azetidin-1-yl)-8-fluoroquinazolin-4-yl)-2-methylpiperazin-1-yl)prop-2-en-1-one] as the compound, how does the Binding % read?
Its Binding % is “+++ (+++ indicates binding activity greater than 80%)”.

For C=CC(=O)N1C[C@H](C)N(c2nc(OCCN3CC(F)(F)C3)nc3c(F)c(-c4c(C)ccc5cnn(C)c45)c(Cl)cc23)C[C@H]1C (atropisomer, axis not shown) [Compound 146, 1-((2R,5S)-4-((S)-6-chloro-2-(2-(3,3-difluoroazetidin-1-yl)ethoxy)-7-(1,6-dimethyl-1H-indazol-7-yl)-8-fluoroquinazolin-4-yl)-2,5-dimethylpiperazin-1-yl)prop-2-en-1-one], which Binding % is on record?
The Binding % was “+ (+ indicates binding activity greater than 0% and up to 50%)”.

C=CC(=O)N1C[C@H](C)N(c2nc(OCCN3CC(F)(F)C3)nc3c(F)c(-c4c(C)ccc5cnn(C)c45)c(Cl)cc23)C[C@H]1C (atropisomer, axis not shown) [Compound 147, 1-((2R,5S)-4-((R)-6-chloro-2-(2-(3,3-difluoroazetidin-1-yl)ethoxy)-7-(1,6-dimethyl-1H-indazol-7-yl)-8-fluoroquinazolin-4-yl)-2,5-dimethylpiperazin-1-yl)prop-2-en-1-one] was tested. Which Binding % did it give?
The Binding % was “+++ (+++ indicates binding activity greater than 80%)”.

For C=CC(=O)N1C[C@H](C)N(c2nc(N3CC(N(C)C)C3)nc3c(F)c(-c4c(C)ccc5cnn(C6CC6)c45)c(Cl)cc23)C[C@H]1C (atropisomer, axis not shown) [Compound 149, 1-((2R,5S)-4-((S)-6-chloro-7-(1-cyclopropyl-6-methyl-1H-indazol-7-yl)-2-(3-(dimethylamino)azetidin-1-yl)-8-fluoroquinazolin-4-yl)-2,5-dimethylpiperazin-1-yl)prop-2-en-1-one], which Binding % is on record?
Its Binding % is “+ (+ indicates binding activity greater than 0% and up to 50%)”.

With C=CC(=O)N1C[C@H](C)N(c2nc(N3CC(N(C)C)C3)nc3c(F)c(-c4c(C)ccc5cnn(C6CC6)c45)c(Cl)cc23)C[C@H]1C (atropisomer, axis not shown) [Compound 150, 1-((2R,5S)-4-((R)-6-chloro-7-(1-cyclopropyl-6-methyl-1H-indazol-7-yl)-2-(3-(dimethylamino)azetidin-1-yl)-8-fluoroquinazolin-4-yl)-2,5-dimethylpiperazin-1-yl)prop-2-en-1-one] as the compound, how does the Binding % read?
The Binding % was “+++ (+++ indicates binding activity greater than 80%)”.

For C=CC(=O)N1[C@H](C)CN(c2nc(N3CC(N(C)C)C3)nc3c(F)c(-c4c(C)ccc5[nH]nc(C)c45)c(Cl)cc23)C[C@@H]1C (atropisomer, axis not shown) [Compound 151, 1-((2S,6R)-4-((S)-6-chloro-7-(3,5-dimethyl-1H-indazol-4-yl)-2-(3-(dimethylamino)azetidin-1-yl)-8-fluoroquinazolin-4-yl)-2,6-dimethylpiperazin-1-yl)prop-2-en-1-one], which Binding % is on record?
Its Binding % is “+ (+ indicates binding activity greater than 0% and up to 50%)”.

For C=CC(=O)N1[C@H](C)CN(c2nc(N3CC(N(C)C)C3)nc3c(F)c(-c4c(C)ccc5[nH]nc(C)c45)c(Cl)cc23)C[C@@H]1C (atropisomer, axis not shown) [Compound 152, 1-((2S,6R)-4-((R)-6-chloro-7-(3,5-dimethyl-1H-indazol-4-yl)-2-2(3-(dimethylamino)azetidin-1-yl)-8-fluoroquinazolin-4-yl)-2,6-dimethylpiperazin-1-yl)prop-2-en-1-one], which Binding % is on record?
The Binding % was “+++ (+++ indicates binding activity greater than 80%)”.

Which Binding % does the source give for C=CC(=O)N1C[C@H](C)N(c2nc(OCCCN(C)C)nc3c(F)c(-c4c(C)ccc5cnn(C)c45)c(Cl)cc23)C[C@H]1C (atropisomer, axis not shown) [Compound 153, 1-((2R,5S)-4-((S)-6-chloro-7-(1,6-dimethyl-1H-indazol-7-yl)-2-(3-(dimethylamino)pro-poxy)-8-fluoroquinazolin-4-yl)-2,5-dimethylpiperazin-1-yl)prop-2-en-1-one] here?
The Binding % was “+ (+ indicates binding activity greater than 0% and up to 50%)”.

Which Binding % does the source give for C=CC(=O)N1C[C@H](C)N(c2nc(OCCCN(C)C)nc3c(F)c(-c4c(C)ccc5cnn(C)c45)c(Cl)cc23)C[C@H]1C (atropisomer, axis not shown) [Compound 154, 1-((2R,5S)-4-((R)-6-chloro-7-(1,6-dimethyl-1H-indazol-7-yl)-2-(3-(dimethylamino)pro-poxy)-8-fluoroquinazolin-4-yl)-2,5-dimethylpiperazin-1-yl)prop-2-en-1-one] here?
Its Binding % is “+++ (+++ indicates binding activity greater than 80%)”.

Which Binding % does the source give for C=CC(=O)N1C[C@H](C)N(c2nc(N3CC(N(C)C)C3)nc3c(F)c(-c4c(F)ccc5cnn(C)c45)c(Cl)cc23)C[C@H]1C (atropisomer, axis not shown) [Compound 155, 1-((2R,5S)-4-((R)-6-chloro-2-(3-(dimethylamino)azetidin-1-yl)-8-fluoro-7-(6-fluoro-1-methyl-1H-indazol-7-yl)quinazolin-4-yl)-2,5-dimethylpiperazin-1-yl)prop-2-en-1-one] here?
Its Binding % is “+ (+ indicates binding activity greater than 0% and up to 50%)”.

Which Binding % does the source give for C=CC(=O)N1C[C@H](C)N(c2nc(N3CC(N(C)C)C3)nc3c(F)c(-c4c(F)ccc5cnn(C)c45)c(Cl)cc23)C[C@H]1C (atropisomer, axis not shown) [Compound 156, 1-((2R,5S)-4-((S)-6-chloro-2-(3-(dimethylamino)azetidin-1-yl)-8-fluoro-7-(6-fluoro-1-methyl-1H-indazol-7-yl)quinazolin-4-yl)-2,5-dimethylpiperazin-1-yl)prop-2-en-1-one] here?
Its Binding % is “+++ (+++ indicates binding activity greater than 80%)”.

How did the Binding % turn out when C=CC(=O)N1C[C@H](C)N(c2nc(OC3CCN(C(C)C)CC3)nc3c(F)c(-c4c(C)ccc5cnn(C)c45)c(Cl)cc23)C[C@H]1C (atropisomer, axis not shown) [Compound 166, 1-((2R,5S)-4-((S)-6-chloro-7-(1,6-dimethyl-1H-indazol-7-yl)-8-fluoro-2-(1-isopropylpiperidin-4-yloxy)quinazolin-4-yl)-2,5-dimethylpiperazin-1-yl)prop-2-en-1-one] was run?
The Binding % was “+ (+ indicates binding activity greater than 0% and up to 50%)”.

Which Binding % does the source give for C=CC(=O)N1C[C@H](C)N(c2nc(OC3CCN(C(C)C)CC3)nc3c(F)c(-c4c(C)ccc5cnn(C)c45)c(Cl)cc23)C[C@H]1C (atropisomer, axis not shown) [Compound 167, 1-((2R,5S)-4-((R)-6-chloro-7-(1,6-dimethyl-1H-indazol-7-yl)-8-fluoro-2-(1-isopropylpiperidin-4-yloxy)quinazolin-4-yl)-2,5-dimethylpiperazin-1-yl)prop-2-en-1-one] here?
Its Binding % is “+++ (+++ indicates binding activity greater than 80%)”.

With C=CC(=O)N1C[C@H](C)N(c2nc(OCCN3CCN(C)CC3)nc3c(F)c(-c4c(C)ccc5cnn(C)c45)c(Cl)cc23)C[C@H]1C (atropisomer, axis not shown) [Compound 168, 1-((2R,5S)-4-((S)-6-chloro-7-(1,6-dimethyl-1H-indazol-7-yl)-8-fluoro-2-(2-(4-methylpiperazin-1-yl)ethoxy)quinazolin-4-yl)-2,5-dimethylpiperazin-1-yl)prop-2-en-1-one] as the compound, how does the Binding % read?
The Binding % was “+ (+ indicates binding activity greater than 0% and up to 50%)”.

For C=CC(=O)N1C[C@H](C)N(c2nc(OCCN3CCN(C)CC3)nc3c(F)c(-c4c(C)ccc5cnn(C)c45)c(Cl)cc23)C[C@H]1C (atropisomer, axis not shown) [Compound 169, 1-((2R,5S)-4-((R)-6-chloro-7-(1,6-dimethyl-1H-indazol-7-yl)-8-fluoro-2-(2-(4-methylpiperazin-1-yl)ethoxy)quinazolin-4-yl)-2,5-dimethylpiperazin-1-yl)prop-2-en-1-one], which Binding % is on record?
The Binding % was “+++ (+++ indicates binding activity greater than 80%)”.

Which Binding % does the source give for C=CC(=O)N1C[C@H](C)N(c2nc(N3CC(NC)C3)nc3c(F)c(-c4c(C)ccc5cnn(C)c45)c(Cl)cc23)C[C@H]1C (atropisomer, axis not shown) [Compound 170, 1-((2R,5S)-4-((R)-6-chloro-7-(1,6-dimethyl-1H-indazol-7-yl)-8-fluoro-2-(3-(methylamino)azetidin-1-yl)quinazolin-4-yl)-2,5-dimethylpiperazin-1-yl)prop-2-en-1-one] here?
Its Binding % is “+++ (+++ indicates binding activity greater than 80%)”.

Which Binding % does the source give for C=CC(=O)N1C[C@H](C)N(c2nc(N3CC(N(C)C)C3)nc3c(F)c(-c4c(F)ccc5cnn(C6CC6)c45)c(Cl)cc23)C[C@H]1C (atropisomer, axis not shown) [Compound 201, 1-((2R,5S)-4-((S)-6-chloro-7-(1-cyclopropyl-6-fluoro-1H-indazol-7-yl)-2-(3-(dimethylamino)azetidin-1-yl)-8-fluoroquinazolin-4-yl)-2,5-dimethylpiperazin-1-yl)prop-2-en-1-one] here?
Its Binding % is “+++ (+++ indicates binding activity greater than 80%)”.

With C=CC(=O)N1C[C@H](C)N(c2nc(N3CC(NC)C3)nc3c(F)c(-c4c(C)ccc5cnn(C)c45)c(Cl)cc23)C[C@H]1C (atropisomer, axis not shown) [Compound 206, 1-((2R,5S)-4-((R)-6-chloro-7-(1,6-dimethyl-1H-indazol-7-yl)-8-fluoro-2-(3-(methylamino)azetidin-1-yl)quinazolin-4-yl)-2,5-dimethylpiperazin-1-yl)prop-2-en-1-one] as the compound, how does the Binding % read?
Its Binding % is “+++ (+++ indicates binding activity greater than 80%)”.
